# Data taken from US12325676B2, “Cationic lipid compound and composition for delivery of nucleic acids and use thereof” (Shenzhen Rhegen Biotechnology Co., Ltd., priority 2022, dated 2025).
# Key:
# [1] = Particle size, PDI and zeta potential of mRNA-loaded lipid nanoparticles (Malvern Zetasizer nano); format: physicochemical
# Procedure: (§1) Luciferase mRNA was diluted in 10-100 mM citrate buffer at pH 4.0; the lipid components (cationic lipids shown in the present disclosure: DSPC:cholesterol:PEG lipids (DMG-PEG2000)) were dissolved in ethanol at a molar ratio of 50:10:38.5:1.5.
# (§2) 3 mL of a mRNA buffer and 1 mL of a lipid solution were loaded into two 5 mL syringes respectively, and the syringes were installed on a microfluidic syringe pump. Chips were connected to the syringes and syringe pump flow rate was set. Clicking the start button of the syringe pump caused injection into the chip at a flow rate ratio of 3:1. Under observation of the color of the product at the exit of the chip, after discarding the first 5 milky white droplets (about 100 μL), the back-end sample was collected into an EP tube. The collected product was placed in a dialysis bag and dialyzed for 6 h (MWCO: 100 KDa) in 10 mM PBS (pH 7.4) intervals. Subsequently, after being concentrated by ultrafiltration to the desired concentration, the lipid nanoparticles were filtered through a 0.22 μm sterile filter and then stored at 4° C.
# (§3) Tests were performed to calculate the encapsulation rate of the products according to the instructions of Ribogreen kit. Particle size and polydispersity index (PDI) detection as well as zeta potential analysis was performed on a Malvern Zetasizer nano instrument using standard assays.
# [2] = Encapsulation rate of mRNA-loaded lipid nanoparticles (Ribogreen kit); format: physicochemical
# Procedure: as §1, §2, §3
# [3] = as above; format: physicochemical; settings: Table 4 batch; EPO mRNA LNP prepared as Example 20
# [4] = test system: BALB/c mice; assay: In vivo expression of luciferase mRNA delivered by LNP, tail intravenous injection, small animal imaging; settings: Table 3, 5 μg mRNA, female BALB/c mice, DLin-MC3-DMA = 100
# Procedure: LUC-mRNA-lipid nanoparticles containing 5 μg mRNA (see SEQ ID NO: 1 in the Patent Application Publication CN114380724A for the corresponding nucleotide sequence of LUC-mRNA) were injected via tail intravenous injection in 6-8 week old female BALB/c mice, prepared as in Example 19. 100 μg of D-Luciferin Potassium Salt was injected via tail intravenous injection into the mice at specific time points and assayed using the PerkinElmer Small Animal Imaging System. Fluc is commonly used in mammalian cell cultures to measure gene expression and cell viability, and it emits biological fluorescent light in the presence of the substrate […]. The basic characteristics of the mRNA used include ARCA cap structure, polyA tail length of 120 nt, and complete substitution of pseudouridine.
# The effect of delivering luciferase mRNA using more cationic lipids were validated according to the methods of Example 20 and Example 21.
# [5] = Particle size, PDI and zeta potential of mRNA-loaded lipid nanoparticles (Malvern Zetasizer nano); format: physicochemical; settings: Table 4 batch; EPO mRNA LNP prepared as Example 20
# [6] = test system: BALB/c mice; assay: In vivo EPO protein expression after tail i.v. injection of EPO-mRNA LNP, serum ELISA; settings: 6 hours after tail i.v. injection of 20 μg EPO-mRNA-lipid nanoparticles, female Balb/c mice
# Procedure: In the example, the effects of in vivo transfection of erythropoietin (EPO) by various cationic liposomes were compared. Nanoparticles were prepared in the same manner as in Example 20, and the nucleotide sequence corresponding to the EPO mRNA used is given in CN114380724B, SEQ ID NO:2. After preparation, 20 μg of EPO-mRNA-lipid nanoparticles were injected via tail intravenous injection in 6-8 week female Balb/c mice. 6 hours later the mice were subjected to blood sampling from the eye frame. After centrifugation to separate the serum, EPO protein expression was determined using ELISA. The basic characteristics of the mRNA used include ARCA cap structure, polyA tail length of 100-120 nt, and complete substitution of pseudouridine.
# [7] = test system: C57BL6 mice; assay: Intratumoral injection of luciferase mRNA LNP, fluorescence of tumor and liver; format: in vivo; settings: luciferase mRNA LNP 25 μL/2.5 μg intratumoral, B 16F 10 tumor in C57BL6 mice, imaging after 24 h (FIGS. 6 and 7)
# Procedure: Different types of lipid nanoparticles encapsulating luciferase mRNA in were prepared accordance with the preparation of Example 20. Tumors were injected subcutaneously in the right abdomen of 6-8 week female C57BL6 mice at 5×10^5 B 16F 10 cells (from CAS Cell Bank, CSTR:19375.09.3101MOUTCM36)/mouse, and tumor growth was observed and recorded periodically. On the 8th day after tumor inoculation, the length (L, mm) and width (D, mm) of the tumors were measured by using a vernier caliper, and the tumor volume (V) was calculated according to the formula V=(L×D^2)/2. Mice with tumor volume in the range of 80-120 mm^3 were taken and randomly grouped, and intratumorally injected with different types of lipid nanoparticles encapsulating luciferase mRNA at the volume of 25 μL/2.5 μg. Anatomical imaging was performed after 24 h to detect the fluorescence intensity of the mouse liver and tumor (as shown in FIGS. 6 and 7). […] This indicates better in situ tumor expression and lower liver […], which is suitable for encapsulation and delivery of some tumor therapy-related nucleic acid drugs.
# [8] = Table 1, Luciferase mRNA LNP, cationic lipid:DSPC:cholesterol:DMG-PEG2000 50:10:38.5:1.5 molar
# [9] = Table 3 batch, luciferase mRNA LNP prepared as Example 20
"PDI [1, 8]","Particle size (nm) [1, 8]","Zeta potential (mV) [1, 8]","Encapsulation rate (%) [2, 8]","PDI [1, 9]","Particle size (nm) [1, 9]",Encapsulation rate (%) [3],"Encapsulation rate (%) [2, 9]",PDI [5],Particle size (nm) [5],SMILES,relative fluorescence intensity (%) [4],EPO concentration [6],brightness (fluorescence intensity) at the tumor [7],brightness (fluorescence intensity) in the liver [7]
0.11,98.4 nm,0.55 mV,93.9%,–,–,–,–,–,–,CCCCCCCCSCC(CC)C(=O)OCCCCCN(CCO)CCCCCCCC(=O)OC(CCCCCCCC)CCCCCCCC (stereo not drawn) [Compound 36],–,–,–,–
0.17,95.6 nm,0.79 mV,63.9%,–,–,–,–,–,–,CCCCCCCCOCC(CCCC)C(=O)OCCCCCN(CCO)CCCCCCCC(=O)OC(CCCCCCCC)CCCCCCCC (stereo not drawn) [Compound 6],–,–,–,–
0.03,105.5 nm,−1.31 mV,95.6%,–,–,–,–,–,–,CCCCCCCCCCSCCC(=O)OCCCCCN(CCO)CCCCCCCC(=O)OC(CCCCCCCC)CCCCCCCC [Compound 29],–,–,–,–
0.21,94.4 nm,0.39 mV,83.7%,–,–,–,–,–,–,CCCCCCCCCCOCC(CCC)C(=O)OCCCCCN(CCO)CCCCCCCC(=O)OC(CCCCCCCC)CCCCCCCC (stereo not drawn) [Compound 4],–,–,–,–
–,–,–,–,0.11,91.0 nm,95.0%,98.0%,0.14,75.3 nm,CCCCCCCCC(CCCCCCCC)OC(=O)CCCCCCCN(CCO)CCCCCCCOC(=O)C(C)CSCCCCCC (stereo not drawn) [Compound 51],734 ± 51%,6.68e+07 pg/mL,higher brightness at the tumor,lower brightness in the liver
0.22,119.0 nm,−3.27 mV,95.7%,–,–,–,–,–,–,CCCCCCCCC(CCCCCCCC)OC(=O)CCCCCCCN(CCO)CCCCCCC(=O)OCCOCCCCCCC [Compound 14],–,–,–,–
0.21,104.1 nm,−2.82 mV,96.4%,0.10,71.1 nm,95.5%,97.1%,0.17,82.5 nm,CCCCCCCCSCC(C)C(=O)OCCCCCN(CCO)CCCCCCCOC(=O)C(CCCCCCCC)CCCCCCCC (stereo not drawn) [Compound 44],843 ± 52%,4.89e+07 pg/mL,–,–
–,–,–,–,0.20,90.9 nm,96.5%,95.6%,0.12,75.4 nm,CCCCCCCCOCC(C)C(=O)OCCCCCN(CCO)CCCCCCCOC(=O)C(CCCCCCCC)CCCCCCCC (stereo not drawn) [Compound 16],574 ± 102%,3.01e+07 pg/mL,–,–
0.04,127.6 nm,5.29 mV,95.9%,–,–,–,–,–,–,CCCCCCCCOCC(C)C(=O)OCCCCCN(CCCCCCCC(=O)OC(CCCCCCCC)CCCCCCCC)CCN(CC)CC (stereo not drawn) [Compound 28],–,–,–,–
–,–,–,–,0.10,75.4 nm,96.5%,97.0%,0.11,81.7 nm,CCCCCCCCC(CCCCCCCC)OC(=O)CCCCCCCN(CCO)CCCCCCCOC(=O)C(C)COCCCCCC (stereo not drawn) [Compound 23],764 ± 39%,4.11e+07 pg/mL,–,–
0.11,101.3 nm,−4.12 mV,95.6%,–,–,–,–,–,–,CCCCCCCCSC(CCCCCC)C(=O)OCCCCCCN(CCO)CCCCCCOC(=O)C(CCCCCC)CCCCCCCC (stereo not drawn) [Compound 46],–,–,–,–
0.10,90.9 nm,−0.15 mV,92.5%,0.11,68.2 nm,96.9%,97.6%,0.09,74.0 nm,CCCCCCCCC(CCCCCCCC)C(=O)OCCCCCCCN(CCO)CCCCCCCOC(=O)C(C)COCCCCCC (stereo not drawn) [Compound 17],686 ± 45%,3.25e+07 pg/mL,–,–
0.24,122.8 nm,7.09 mV,94.1%,–,–,–,–,–,–,CCCCCCCCCCSCCC(=O)OCCCCCN(CCCCCCCC(=O)OC(CCCCCCCC)CCCCCCCC)CCN(C)C [Compound 57],–,–,–,–
0.10,94.2 nm,−0.14 mV,92.5%,–,–,–,–,–,–,CCCCCCCCSCC(C)C(=O)OCCCCCN(CCCO)CCCCCCCC(=O)OC(CCCCCCCC)CCCCCCCC (stereo not drawn) [Compound 48],–,–,–,–
0.12,97.3 nm,0.49 mV,87.8%,–,–,–,–,–,–,CCCCCCCCCCOCC(C)C(=O)OCCCCCN(CCO)CCCCCCCC(=O)OC(CCCCCCCC)CCCCCCCC (stereo not drawn) [Compound 2],–,–,–,–
0.10,113.9 nm,1.95 mV,87.5%,–,–,–,–,–,–,CCCCCCCCCCOCC(CC)C(=O)OCCCCCN(CCO)CCCCCCCC(=O)OC(CCCCCCCC)CCCCCCCC (stereo not drawn) [Compound 3],–,–,–,–
0.13,102.3 nm,7.37 mV,91.1%,–,–,–,–,–,–,CCCCCCCCSCCOC(=O)CCCCCCCN(CCCCCCCC(=O)OC(CCCCCCCC)CCCCCCCC)CCN(C)C [Compound 55],–,–,–,–
0.17,123.4 nm,−7.02 mV,94.9%,–,–,–,–,–,–,CCCCCCCCCCSCCOC(=O)CCCCCCCN(CCO)CCCCCCCC(=O)OC(CCCCCCCC)CCCCCCCC [Compound 41],–,–,–,–
–,–,–,–,0.15,80.9 nm,93.9%,96.8%,0.15,81.0 nm,CCCCCCCCC(CCCCCCCC)C(=O)OCCCCCCCN(CCO)CCCCCCCOC(=O)C(C)CSCCCCCC (stereo not drawn) [Compound 45],559 ± 33%,3.46e+07 pg/mL,–,–
0.11,121.2 nm,−0.26 mV,95.7%,–,–,–,–,–,–,CCCCCCCCCCSCC(C)C(=O)OCCCCCN(CCO)CCCCCCCC(=O)OC(CCCCCCCC)CCCCCCCC (stereo not drawn) [Compound 30],–,–,–,–
